Data: patent US7015215B2, “Pyrrolo[2,1-c][1,4] benzodiazepines compounds and process thereof” (Council of Scientific and Industrial Research, priority 2003, dated 2006)

Assays:
human tumor cell lines = assay: NCI in vitro cytotoxicity SRB assay, mean graph midpoints over the panel; assay type: cell-based; conditions: 48 h continuous exposure
Method: (§1) Biological Activity: In vitro biological activity studies were carried out at National Cancer Institute (U.S.A.).
(§2) For each compound, dose response curves for each cell line were measured at a minimum of five concentrations at 10 fold dilutions. A protocol of 48 h continuous drug exposure was used, and a sulforhodamine B (SRB) protein assay was used to estimate cell viability or growth. The concentration causing 50% cell growth inhibition (GI50), total cell growth inhibition (TGI, 0% growth) and 50% cell death (LC50, −50% growth) compared with the control was calculated.

K-62 = assay: NCI SRB cytotoxicity, Leukemia K-62; assay type: cell-based, human; conditions: K-62, Leukemia, 48 h
Method: as §1, §2

MOLT-4 = assay: NCI SRB cytotoxicity, Leukemia MOLT-4; assay type: cell-based, human; conditions: MOLT-4, Leukemia, 48 h
Method: as §1, §2

RPMI-8226 = assay: NCI SRB cytotoxicity, Leukemia RPMI-8226; assay type: cell-based, human; conditions: RPMI-8226, Leukemia, 48 h
Method: as §2

SR = assay: NCI SRB cytotoxicity, Leukemia SR; assay type: cell-based, human; conditions: 48 h
Method: as §1, §2

A549/ATCC = assay: NCI SRB cytotoxicity, Non-small-cell lung A549/ATCC; assay type: cell-based, human; conditions: 48 h
Method: as §1, §2

EKVX = assay: NCI SRB cytotoxicity, Non-small-cell lung EKVX; assay type: cell-based, human; conditions: 48 h
Method: as §1, §2

HOP-92 = assay: NCI SRB cytotoxicity, Non-small-cell lung HOP-92; assay type: cell-based, human; conditions: HOP-92, Non-small-cell lung, 48 h
Method: as §1, §2

NCI-H322 = assay: NCI SRB cytotoxicity, Non-small-cell lung NCI-H322; assay type: cell-based, human; conditions: 48 h
Method: as §1, §2

NCI-H460 = assay: NCI SRB cytotoxicity, Non-small-cell lung NCI-H460; assay type: cell-based, human; conditions: 48 h
Method: as §1, §2

COLO 205 = assay: NCI SRB cytotoxicity, Colon COLO 205; assay type: cell-based, human; conditions: COLO 205, Colon, 48 h
Method: as §1, §2

SW-620 = assay: NCI SRB cytotoxicity, Colon SW-620; assay type: cell-based, human; conditions: SW-620, Colon, 48 h
Method: as §1, §2

SF-268 = assay: NCI SRB cytotoxicity, CNS SF-268; assay type: cell-based, human; conditions: SF-268, CNS, 48 h
Method: as §1, §2

SF-539 = assay: NCI SRB cytotoxicity, CNS SF-539; assay type: cell-based, human; conditions: SF-539, CNS, 48 h
Method: as §1, §2

SNB-75 = assay: NCI SRB cytotoxicity, CNS SNB-75; assay type: cell-based, human; conditions: SNB-75, CNS, 48 h
Method: as §1, §2

U251 = assay: NCI SRB cytotoxicity, CNS U251; assay type: cell-based, human; conditions: 48 h
Method: as §1, §2

M14 = assay: NCI SRB cytotoxicity, Melanoma M14; assay type: cell-based, human; conditions: 48 h
Method: as §1, §2

SK-MEL-2 = assay: NCI SRB cytotoxicity, Melanoma SK-MEL-2; assay type: cell-based, human; conditions: SK-MEL-2, Melanoma, 48 h
Method: as §1, §2

SK-MEL-28 = assay: NCI SRB cytotoxicity, Melanoma SK-MEL-28; assay type: cell-based, human; conditions: SK-MEL-28, Melanoma, 48 h
Method: as §1, §2

SK-MEL-5 = assay: NCI SRB cytotoxicity, Melanoma SK-MEL-5; assay type: cell-based, human; conditions: SK-MEL-5, Melanoma, 48 h
Method: as §1, §2

UACC-257 = assay: NCI SRB cytotoxicity, Melanoma UACC-257; assay type: cell-based, human; conditions: UACC-257, Melanoma, 48 h
Method: as §1, §2

UACC-62 = assay: NCI SRB cytotoxicity, Melanoma UACC-62; assay type: cell-based, human; conditions: UACC-62, Melanoma, 48 h
Method: as §1, §2

OVCAR-3 = assay: NCI SRB cytotoxicity, Ovarian OVCAR-3; assay type: cell-based, human; conditions: OVCAR-3, Ovarian, 48 h
Method: as §1, §2

786-0 = assay: NCI SRB cytotoxicity, Renal 786-0; assay type: cell-based, human; conditions: 786-0, Renal, 48 h
Method: as §1, §2

A498 = assay: NCI SRB cytotoxicity, Renal A498; assay type: cell-based, human; conditions: 48 h
Method: as §1, §2

ACHN = assay: NCI SRB cytotoxicity, Renal ACHN; assay type: cell-based, human; conditions: 48 h
Method: as §1, §2

CAKI-1 = assay: NCI SRB cytotoxicity, Renal CAKI-1; assay type: cell-based, human; conditions: CAKI-1, Renal, 48 h
Method: as §1, §2

RXF 393 = assay: NCI SRB cytotoxicity, Renal RXF 393; assay type: cell-based, human; conditions: RXF 393, Renal, 48 h
Method: as §2

SN12C = assay: NCI SRB cytotoxicity, Renal SN12C; assay type: cell-based, human; conditions: 48 h
Method: as §1, §2

TK-10 = assay: NCI SRB cytotoxicity, Renal TK-10; assay type: cell-based, human; conditions: TK-10, Renal, 48 h
Method: as §1, §2

UO-31 = assay: NCI SRB cytotoxicity, Renal UO-31; assay type: cell-based, human; conditions: UO-31, Renal, 48 h
Method: as §2

DU-145 = assay: NCI SRB cytotoxicity, Prostate DU-145; assay type: cell-based, human; conditions: DU-145, Prostate, 48 h
Method: as §2

NCI/ADR-RES = assay: NCI SRB cytotoxicity, Breast NCI/ADR-RES; assay type: cell-based, human; conditions: 48 h
Method: as §1, §2

MDA-MB-231/ATCC = assay: NCI SRB cytotoxicity, Breast MDA-MB-231/ATCC; assay type: cell-based, human; conditions: 48 h
Method: as §1, §2

BT-549 = assay: NCI SRB cytotoxicity, Breast BT-549; assay type: cell-based, human; conditions: BT-549, Breast, 48 h
Method: as §1, §2

T-47D = assay: NCI SRB cytotoxicity, Breast T-47D; assay type: cell-based, human; conditions: 48 h
Method: as §1, §2

HL-60(TB) = conditions: Leukemia, 48 h, SRB
Method: as §1, §2

COc1cc2c(cc1OCCN1CCN(CCOc3cc4c(cc3OC)C(=O)N3CCC[C@H]3C=N4)CC1)N=C[C@@H]1CCCN1C2=O [Compound VIa, 1,1′-{[(bisethane-1,N-diyl)piperazine]dioxy}bis[(11aS)-7-methoxy-1,2,3,11a-tetrahydro-5H-pyrrolo[2,1-c][1,4]benzodiazepin-5-one]]
Log10 GI50 mean graph midpoint (MG_MID) (human tumor cell lines): −4.69
Log10 LC50 mean graph midpoint (MG_MID) (human tumor cell lines): −4.03
Log10 TGI mean graph midpoint (MG_MID) (human tumor cell lines): −4.16
Log GI 50 (K-62): −4.58 mol/L
Log LC 50 (K-62): −4.00 mol/L
Log GI 50 (MOLT-4): −5.68 mol/L
Log LC 50 (MOLT-4): −4.10 mol/L
Log GI 50 (RPMI-8226): −6.08 mol/L
Log LC 50 (RPMI-8226): −4.33 mol/L
Log GI 50 (SR): −6.68 mol/L
Log LC 50 (SR): −5.21 mol/L
Log GI 50 (A549/ATCC): −4.10 mol/L
Log LC 50 (A549/ATCC): −4.00 mol/L
Log GI 50 (EKVX): −4.00 mol/L
Log LC 50 (EKVX): −4.00 mol/L
Log GI 50 (HOP-92): −4.68 mol/L
Log LC 50 (HOP-92): −4.00 mol/L
Log GI 50 (NCI-H322): −4.51 mol/L
Log LC 50 (NCI-H322): −4.00 mol/L
Log GI 50 (NCI-H460): −4.95 mol/L
Log LC 50 (NCI-H460): −4.00 mol/L
Log GI 50 (COLO 205): −4.66 mol/L
Log LC 50 (COLO 205): −4.00 mol/L
Log GI 50 (SW-620): −4.68 mol/L
Log LC 50 (SW-620): −4.00 mol/L
Log GI 50 (SF-268): −4.95 mol/L
Log LC 50 (SF-268): −4.00 mol/L
Log GI 50 (SF-539): −4.97 mol/L
Log LC 50 (SF-539): −4.00 mol/L
Log GI 50 (SNB-75): −4.23 mol/L
Log LC 50 (SNB-75): −4.00 mol/L
Log GI 50 (U251): −4.87 mol/L
Log LC 50 (U251): −4.00 mol/L
Log GI 50 (M14): −4.61 mol/L
Log GI 50 (SK-MEL-2): −4.57 mol/L
Log LC 50 (SK-MEL-2): −4.00 mol/L
Log GI 50 (SK-MEL-28): −4.22 mol/L
Log LC 50 (SK-MEL-28): −4.00 mol/L
Log GI 50 (SK-MEL-5): −4.75 mol/L
Log LC 50 (SK-MEL-5): −4.00 mol/L
Log GI 50 (UACC-257): −4.49 mol/L
Log LC 50 (UACC-257): −4.00 mol/L
Log GI 50 (UACC-62): −4.83 mol/L
Log LC 50 (UACC-62): −4.00 mol/L
Log GI 50 (OVCAR-3): −4.68 mol/L
Log LC 50 (OVCAR-3): −4.00 mol/L
Log GI 50 (786-0): −4.84 mol/L
Log LC 50 (786-0): −4.00 mol/L
Log GI 50 (A498): −4.29 mol/L
Log LC 50 (A498): −4.00 mol/L
Log GI 50 (ACHN): −4.82 mol/L
Log LC 50 (ACHN): −4.00 mol/L
Log GI 50 (CAKI-1): −5.04 mol/L
Log LC 50 (CAKI-1): −4.00 mol/L
Log GI 50 (RXF 393): −4.23 mol/L
Log LC 50 (RXF 393): −4.00 mol/L
Log GI 50 (SN12C): −4.90 mol/L
Log LC 50 (SN12C): −4.00 mol/L
Log GI 50 (TK-10): −4.63 mol/L
Log LC 50 (TK-10): −4.00 mol/L
Log GI 50 (UO-31): −4.12 mol/L
Log LC 50 (UO-31): −4.00 mol/L
Log GI 50 (DU-145): −4.36 mol/L
Log LC 50 (DU-145): −4.00 mol/L
Log GI 50 (NCI/ADR-RES): −4.00 mol/L
Log LC 50 (NCI/ADR-RES): −4.00 mol/L
Log GI 50 (MDA-MB-231/ATCC): −4.67 mol/L
Log LC 50 (MDA-MB-231/ATCC): −4.00 mol/L
Log GI 50 (BT-549): −4.56 mol/L
Log LC 50 (BT-549): −4.00 mol/L
Log GI 50 (T-47D): −4.57 mol/L
Log LC 50 (T-47D): −4.00 mol/L
Log GI 50 (HL-60(TB)): −5.49 mol/L
Log LC 50 (HL-60(TB)): −4.00 mol/L
